# Test results: patent publication US9440969B2, “Compounds and methods for kinase modulation, and indications therefor” (PLEXXIKON INC., priority 2009, dated 2016)
# Assay: Relative solubility by turbidity in aqueous buffers (pH 1.5, 4.5, 6.8, 7.4)
# Format: physicochemical
# Conditions: for turbidity threshold (L, M, H) 1.4: pH 1.5 buffer (SGF); for turbidity threshold (L, M, H) 4.5: pH 4.5 buffer (SIF); for turbidity threshold (L, M, H) 6.8: pH 6.8 buffer (SIF); for turbidity threshold (L, M, H) 7.4: pH 7.4 buffer (HEPES)
# Summary of the method: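 2-fold DMSO dilution series from 25 mM stocks were added to SGF (0.5M NaCl, pH 1.5), SIF (0.05M NaH2PO4, pH 4.5/6.8) or HEPES (10 mM, 150 mM NaCl, pH 7.4). Absorbance at 490, 535 and 650 nm; value is the concentration crossing OD 0.01, averaged over wavelengths. Low <31.3 μM, moderate 31.3–250 μM, high >250 μM.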
Compound,"turbidity threshold (L, M, H) 1.4","turbidity threshold (L, M, H) 4.5","turbidity threshold (L, M, H) 6.8","turbidity threshold (L, M, H) 7.4"
"CCCS(=O)(=O)Nc1ccc(F)c(C(=O)c2c[nH]c3ncc(-c4ccc5nn(C)cc5c4)cc23)c1F [P-0010, Propane-1-sulfonic acid {2,4-difluoro-3-[5-(2-methyl-2H-indazol-5-yl)-1H-pyrrolo[2,3-b]pyridine-3-carbonyl]-phenyl}-amide]",L (low solubility if the threshold concentration is <31.3 μM),L (low solubility if the threshold concentration is <31.3 μM),L (low solubility if the threshold concentration is <31.3 μM),L (low solubility if the threshold concentration is <31.3 μM)
"CCCS(=O)(=O)Nc1ccc(F)c(C(=O)c2c[nH]c3ncc(-c4ccc5cn(C)nc5c4)cc23)c1F [P-0011, Propane-1-sulfonic acid {2,4-difluoro-3-[5-(2-methyl-2H-indazol-6-yl)-1H-pyrrolo[2,3-b]pyridine-3-carbonyl]-phenyl}-amide]",L (low solubility if the threshold concentration is <31.3 μM),L (low solubility if the threshold concentration is <31.3 μM),M (moderate solubility if the threshold concentration is 31.3 μM to 250 μM),L (low solubility if the threshold concentration is <31.3 μM)
"CCCS(=O)(=O)Nc1ccc(F)c(C(=O)c2c[nH]c3ncc(-c4ccc5[nH]ccc5c4)cc23)c1F [P-0012, Propane-1-sulfonic acid {2,4-difluoro-3-[5-(1H-indol-5-yl)-1H-pyrrolo[2,3-b]pyridine-3-carbonyl]-phenyl}-amide]",L (low solubility if the threshold concentration is <31.3 μM),L (low solubility if the threshold concentration is <31.3 μM),L (low solubility if the threshold concentration is <31.3 μM),L (low solubility if the threshold concentration is <31.3 μM)
"CCCS(=O)(=O)Nc1ccc(F)c(C(=O)c2c[nH]c3ncc(-c4cccc5nn(C)cc45)cc23)c1F [P-0015, Propane-1-sulfonic acid {2,4-difluoro-3-[5-(2-methyl-2H-indazol-4-yl)-1H-pyrrolo[2,3-b]pyridine-3-carbonyl]-phenyl}-amide]",L (low solubility if the threshold concentration is <31.3 μM),L (low solubility if the threshold concentration is <31.3 μM),L (low solubility if the threshold concentration is <31.3 μM),L (low solubility if the threshold concentration is <31.3 μM)
"CCCS(=O)(=O)Nc1ccc(F)c(C(=O)c2c[nH]c3ncc(-c4cnn(C5CCNCC5)c4)cc23)c1F [P-1002, Propane-1-sulfonic acid {2,4-difluoro-3-[5-(1-piperidin-4-yl-1H-pyrazol-4-yl)-1H-pyrrolo[2,3-b]pyridine-3-carbonyl]-phenyl}-amide]",M (moderate solubility if the threshold concentration is 31.3 μM to 250 μM),M (moderate solubility if the threshold concentration is 31.3 μM to 250 μM),L (low solubility if the threshold concentration is <31.3 μM),M (moderate solubility if the threshold concentration is 31.3 μM to 250 μM)
"O=C(c1c(F)ccc(NS(=O)(=O)c2ccc(C(F)(F)F)cc2)c1F)c1c[nH]c2ncc(-c3cnn(C4CCNCC4)c3)cc12 [P-1004, N-{2,4-Difluoro-3-[5-(1-piperidin-4-yl-1H-pyrazol-4-yl)-1H-pyrrolo[2,3-b]pyridine-3-carbonyl]-phenyl}-4-trifluoromethyl-benzenesulfonamide]",L (low solubility if the threshold concentration is <31.3 μM),L (low solubility if the threshold concentration is <31.3 μM),L (low solubility if the threshold concentration is <31.3 μM),L (low solubility if the threshold concentration is <31.3 μM)
"Cc1ccc(-c2cnc3[nH]cc(C(=O)c4c(F)ccc(NS(=O)(=O)c5cc(F)ccc5F)c4F)c3c2)cn1 [P-1408, N-{2,4-Difluoro-3-[5-(6-methyl-pyridin-3-yl)-1H-pyrrolo[2,3-b]pyridine-3-carbonyl]-phenyl}-2,5-difluoro-benzenesulfonamide]",M (moderate solubility if the threshold concentration is 31.3 μM to 250 μM),L (low solubility if the threshold concentration is <31.3 μM),L (low solubility if the threshold concentration is <31.3 μM),L (low solubility if the threshold concentration is <31.3 μM)
"Cc1ncc(-c2cnc3[nH]cc(C(=O)c4c(F)ccc(NS(=O)(=O)c5cc(F)ccc5F)c4F)c3c2)cn1 [P-1503, N-{2,4-Difluoro-3-[5-(2-methyl-pyrimidin-5-yl)-1H-pyrrolo[2,3-b]pyridine-3-carbonyl]-phenyl}-2,5-difluoro-benzenesulfonamide]",L (low solubility if the threshold concentration is <31.3 μM),L (low solubility if the threshold concentration is <31.3 μM),L (low solubility if the threshold concentration is <31.3 μM),M (moderate solubility if the threshold concentration is 31.3 μM to 250 μM)
